In the supplement of paper PMC10883282:

Tests used:
Experiment in all cases: relative viability vs DMSO control (72 h) (fraction); higher = more viable cells
A204 = test system: A204
Outline: (§1)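 ATPLite readings, expressed as percent growth and averaged over up to triplicate wells, provided relative viability. Before reading, sarcoma cell lines seeded in 384-well plates to reach 80–90% confluence received 2.5 µl of serially diluted compound after 24 h, from source plates of 10 mM to 0.0002 mM. Plates were held 72 h at 37 °C, 5% CO2, with 0.1% DMSO as vehicle and a 5 µM positive control. The data were rescaled to 1 for full and 0 for none.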

G401 = test system: G401
Outline: as §1

HS729 = test system: HS729
Outline: as §1

HT1080 = test system: HT1080
Outline: as §1

KHOS-NP = test system: KHOS-NP
Outline: as §1

RD-ES = test system: RD-ES
Outline: as §1

SK-ES-1 = test system: SK-ES-1
Outline: as §1

SK-LMS-1 = test system: SK-LMS-1
Outline: as §1

SW684 = test system: SW684
Outline: as §1

SW872 = test system: SW872
Outline: as §1

SW982 = test system: SW982
Outline: as §1

VA-ES-BJ = test system: VA-ES-BJ
Outline: as §1

CC[C@@H]1C(=O)N(C)c2cnc(Nc3ccc(C(=O)N[C@H]4CC[C@H](N5CCN(CC6CC6)CC5)CC4)cc3OC)nc2N1C(C)C [Volasertib]
Settings | relative viability
A204, 0.00017 µM | 1.13
A204, 0.00051 µM | 1.1
A204, 0.00152 µM | 1.07
A204, 0.00457 µM | 1.1
A204, 0.01372 µM | 1.08
A204, 0.04115 µM | 0.858
A204, 0.1235 µM | 0.669
A204, 0.3704 µM | 0.418
A204, 1.111 µM | 0.253
A204, 3.333 µM | 0.174
A204, 10 µM | 0.0197
G401, 0.00017 µM | 1.01
G401, 0.00051 µM | 1.03
G401, 0.00152 µM | 1.05
G401, 0.00457 µM | 1.03
G401, 0.01372 µM | 1.02
G401, 0.04115 µM | 0.845
G401, 0.1235 µM | 0.5129
G401, 0.3704 µM | 0.427
G401, 1.111 µM | 0.338
G401, 3.333 µM | 0.243
G401, 10 µM | 0.00683
HS729, 0.00017 µM | 0.954
HS729, 0.00051 µM | 0.995
HS729, 0.00152 µM | 0.981
HS729, 0.00457 µM | 0.954
HS729, 0.01372 µM | 0.87
HS729, 0.04115 µM | 0.685
HS729, 0.1235 µM | 0.622
HS729, 0.3704 µM | 0.657
HS729, 1.111 µM | 0.641
HS729, 3.333 µM | 0.612
HS729, 10 µM | 0.0591
HT1080, 0.00017 µM | 1.057
HT1080, 0.00051 µM | 1.06
HT1080, 0.00152 µM | 1.06
HT1080, 0.00457 µM | 1.04
HT1080, 0.01372 µM | 1.03
HT1080, 0.04115 µM | 0.9978
HT1080, 0.1235 µM | 0.239
HT1080, 0.3704 µM | 0.13
HT1080, 1.111 µM | 0.139
HT1080, 3.333 µM | 0.0909
HT1080, 10 µM | 0.00783
KHOS-NP, 0.00017 µM | 1.07
KHOS-NP, 0.00051 µM | 1.06
KHOS-NP, 0.00152 µM | 1.07
KHOS-NP, 0.00457 µM | 1.08
KHOS-NP, 0.01372 µM | 1.09
KHOS-NP, 0.04115 µM | 1.01
KHOS-NP, 0.1235 µM | 0.471
KHOS-NP, 0.3704 µM | 0.276
KHOS-NP, 1.111 µM | 0.222
KHOS-NP, 3.333 µM | 0.184
KHOS-NP, 10 µM | 0.0214
RD-ES, 0.00017 µM | 1.02
RD-ES, 0.00051 µM | 1
RD-ES, 0.00152 µM | 1.01
RD-ES, 0.00457 µM | 1.028
RD-ES, 0.01372 µM | 0.987
RD-ES, 0.04115 µM | 0.447
RD-ES, 0.1235 µM | 0.0248
RD-ES, 0.3704 µM | 0.0217
RD-ES, 1.111 µM | 0.0279
RD-ES, 3.333 µM | 0.0346
RD-ES, 10 µM | 0.0126
SK-ES-1, 0.00017 µM | 1.09
SK-ES-1, 0.00051 µM | 1.1
SK-ES-1, 0.00152 µM | 1.08
SK-ES-1, 0.00457 µM | 1.1
SK-ES-1, 0.01372 µM | 1.05
SK-ES-1, 0.04115 µM | 0.495
SK-ES-1, 0.1235 µM | 0.0483
SK-ES-1, 0.3704 µM | 0.0522
SK-ES-1, 1.111 µM | 0.0871
SK-ES-1, 3.333 µM | 0.114
SK-ES-1, 10 µM | 0.0116
SK-LMS-1, 0.00017 µM | 1.04
SK-LMS-1, 0.00051 µM | 1.01
SK-LMS-1, 0.00152 µM | 1.05
SK-LMS-1, 0.00457 µM | 1.04
SK-LMS-1, 0.01372 µM | 1
SK-LMS-1, 0.04115 µM | 0.551
SK-LMS-1, 0.1235 µM | 0.492
SK-LMS-1, 0.3704 µM | 0.453
SK-LMS-1, 1.111 µM | 0.459
SK-LMS-1, 3.333 µM | 0.3806
SK-LMS-1, 10 µM | 0.0152
SW684, 0.00017 µM | 1.19
SW684, 0.00051 µM | 1.21
SW684, 0.00152 µM | 1.22
SW684, 0.00457 µM | 1.17
SW684, 0.01372 µM | 1.13
SW684, 0.04115 µM | 0.694
SW684, 0.1235 µM | 0.675
SW684, 0.3704 µM | 0.731
SW684, 1.111 µM | 0.675
SW684, 3.333 µM | 0.6025
SW684, 10 µM | 0.0835
SW872, 0.00017 µM | 1.06
SW872, 0.00051 µM | 1.03
SW872, 0.00152 µM | 1.05
SW872, 0.00457 µM | 1.08
SW872, 0.01372 µM | 1.06
SW872, 0.04115 µM | 0.623
SW872, 0.1235 µM | 0.437
SW872, 0.3704 µM | 0.269
SW872, 1.111 µM | 0.176
SW872, 3.333 µM | 0.0454
SW872, 10 µM | 0.00513
SW982, 0.00017 µM | 1.047
SW982, 0.00051 µM | 1.07
SW982, 0.00152 µM | 1.08
SW982, 0.00457 µM | 1.06
SW982, 0.01372 µM | 1.01
SW982, 0.04115 µM | 0.353
SW982, 0.1235 µM | 0.259
SW982, 0.3704 µM | 0.209
SW982, 1.111 µM | 0.182
SW982, 3.333 µM | 0.15
SW982, 10 µM | 0.0111
VA-ES-BJ, 0.00017 µM | 1.04
VA-ES-BJ, 0.00051 µM | 1.04
VA-ES-BJ, 0.00152 µM | 1.07
VA-ES-BJ, 0.00457 µM | 1.06
VA-ES-BJ, 0.01372 µM | 1.04
VA-ES-BJ, 0.04115 µM | 0.486
VA-ES-BJ, 0.1235 µM | 0.234
VA-ES-BJ, 0.3704 µM | 0.108
VA-ES-BJ, 1.111 µM | 0.0943
VA-ES-BJ, 3.333 µM | 0.074
VA-ES-BJ, 10 µM | -0.00633
